{"source": "patent US20180344702A1", "about": "“METHODS FOR TREATING PATIENTS WITH HEMATOLOGIC MALIGNANCIES” (Aptose Biosciences, Inc., priority 2017, published 2018)", "key": {"Ramos": {"system": "Ramos", "test": "Polyploidy in B-cell lines (Edu and PI staining, FACS)", "format": "cell-based", "conditions": "5 nM", "experimental": "(§1) Further mechanistic studies were undertaken to fully elucidate Compound 7's potent cytotoxicity. B-cell lines were treated with vehicle or Compound 7 for 24-72 hours and the increase in DNA content or polyploidy phenotype was assessed using Edu and PI staining followed by FACS analysis using the BD Accuri C6 flow cytometer.\n(§2) Mino and Ramos cell lines were treated with increasing concentrations of."}, "EGFR": {"target": "EGFR (Homo sapiens, UniProt P00533)", "sequence (P00533 25-1210)": "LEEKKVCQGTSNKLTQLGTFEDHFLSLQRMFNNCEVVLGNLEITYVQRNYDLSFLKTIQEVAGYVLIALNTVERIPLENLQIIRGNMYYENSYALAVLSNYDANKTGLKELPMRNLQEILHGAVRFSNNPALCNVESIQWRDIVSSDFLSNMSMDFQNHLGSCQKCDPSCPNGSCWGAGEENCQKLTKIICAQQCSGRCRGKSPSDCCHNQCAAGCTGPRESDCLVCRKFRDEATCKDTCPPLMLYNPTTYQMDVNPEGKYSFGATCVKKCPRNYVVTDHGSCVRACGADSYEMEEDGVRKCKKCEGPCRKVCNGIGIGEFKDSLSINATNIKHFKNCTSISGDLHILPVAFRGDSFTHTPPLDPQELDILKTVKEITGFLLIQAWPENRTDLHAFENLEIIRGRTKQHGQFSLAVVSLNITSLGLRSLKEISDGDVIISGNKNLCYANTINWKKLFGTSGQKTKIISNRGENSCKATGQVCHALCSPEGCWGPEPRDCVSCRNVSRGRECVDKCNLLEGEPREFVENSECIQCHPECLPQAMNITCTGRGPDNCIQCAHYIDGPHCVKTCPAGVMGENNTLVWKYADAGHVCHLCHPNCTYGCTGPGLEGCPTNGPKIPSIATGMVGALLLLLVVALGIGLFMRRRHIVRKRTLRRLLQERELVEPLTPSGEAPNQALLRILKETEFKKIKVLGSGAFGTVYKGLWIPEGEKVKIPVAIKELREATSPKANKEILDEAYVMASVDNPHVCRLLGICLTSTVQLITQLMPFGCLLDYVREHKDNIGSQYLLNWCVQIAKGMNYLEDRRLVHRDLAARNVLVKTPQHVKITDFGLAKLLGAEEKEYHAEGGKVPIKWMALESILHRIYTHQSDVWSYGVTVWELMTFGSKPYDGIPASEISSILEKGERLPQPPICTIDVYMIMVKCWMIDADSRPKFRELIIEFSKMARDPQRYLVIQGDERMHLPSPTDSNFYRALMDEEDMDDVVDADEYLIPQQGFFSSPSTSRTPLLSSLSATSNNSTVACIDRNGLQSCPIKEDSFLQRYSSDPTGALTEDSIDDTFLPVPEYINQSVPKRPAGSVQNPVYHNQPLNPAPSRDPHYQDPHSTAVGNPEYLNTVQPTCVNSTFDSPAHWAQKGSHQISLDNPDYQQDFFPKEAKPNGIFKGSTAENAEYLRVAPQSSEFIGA", "test": "Key off-targets (Table 8)", "format": "biochemical"}, "[1]": {"system": "BTK and Aurora kinase in Ramos cells", "test": "Cell signaling in Ramos cells (Western blot)", "format": "cell-based", "conditions": "relative to ibrutinib", "experimental": "Immunoblot assays: Cells were treated with Compound 7 at various concentrations and collected for cell lysates. The total and phosphorylated levels of the indicated proteins were determined by Western Blot."}, "Mino cells": {"system": "Mino cells", "test": "Polyploidy in B-cell lines (Edu and PI staining, FACS)", "format": "cell-based, human", "conditions": "0.1 and 1.0 nM", "experimental": "as §1, §2"}, "BTK WT": {"target": "BTK WT (Homo sapiens, UniProt Q06187)", "sequence (Q06187 whole entry)": "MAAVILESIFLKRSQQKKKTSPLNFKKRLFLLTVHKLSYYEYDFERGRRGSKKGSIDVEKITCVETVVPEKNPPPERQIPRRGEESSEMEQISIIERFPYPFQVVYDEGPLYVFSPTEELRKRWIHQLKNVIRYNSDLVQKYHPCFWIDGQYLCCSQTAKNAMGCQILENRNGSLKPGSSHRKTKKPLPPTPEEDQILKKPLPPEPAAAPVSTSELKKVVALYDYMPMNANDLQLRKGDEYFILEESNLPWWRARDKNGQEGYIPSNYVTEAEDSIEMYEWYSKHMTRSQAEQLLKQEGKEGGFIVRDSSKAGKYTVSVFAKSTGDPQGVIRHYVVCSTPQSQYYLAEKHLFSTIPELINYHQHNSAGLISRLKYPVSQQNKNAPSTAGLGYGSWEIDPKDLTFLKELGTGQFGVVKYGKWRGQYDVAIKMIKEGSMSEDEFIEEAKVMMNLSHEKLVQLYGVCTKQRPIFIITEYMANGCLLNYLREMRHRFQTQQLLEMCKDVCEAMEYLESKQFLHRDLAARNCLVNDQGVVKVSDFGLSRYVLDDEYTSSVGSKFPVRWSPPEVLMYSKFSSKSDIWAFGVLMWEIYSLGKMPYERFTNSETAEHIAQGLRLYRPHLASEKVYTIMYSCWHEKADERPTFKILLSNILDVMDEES", "test": "Comparative potency against BTK (Table 8)", "format": "biochemical", "conditions": "Table 8, wild-type BTK"}, "FLT3(D835Y)": {"target": "T1, FLT3(D835Y) (Homo sapiens, UniProt P36888, D835Y)", "T1 construct": "made in house; host or cells: E. coli BL21-derived host (T7 phage) or HEK-293", "test": "Inhibition of FLT3 mutants, kinase IC50", "format": "biochemical", "experimental": "(§3) RBC HotSpot Kinase Assay Protocol:\n(§4) Reagents used: Base Reaction buffer; 20 mM Hepes (pH 7.5), 10 mM MgCl2, 1 mM EGTA, 0.02% Brij35, 0.02 mg/ml BSA, 0.1 mM Na3VO4, 2 mM DTT, 1% DMSO. Required cofactors are added individually to each kinase reaction.\n(§5) Compound 7 was dissolved in 100% DMSO to a specified concentration. The serial dilution was conducted by epMotion 5070 in DMSO. The substrate was freshly prepared in Reaction Buffer and any required cofactors to the substrate solution were added. The kinase was added to the solution and gently mixed. Compound 7 was added in 100% DMSO into the kinase reaction mixture by Acoustic technology (Echo550; nanoliter range), and incubated for 20 min at room temperature. ^33P-ATP (Specific activity 10 μCi/μl) was added into the reaction mixture to initiate the reaction, which was incubated for 2 hours, whereupon kinase activity was detected by the filter-binding method."}, "MV4-11 cells": {"system": "MV4-11 cells", "test": "Apoptosis of MV4-11 cells (Annexin V, Western blot)", "format": "cell-based, human", "experimental": "The data presented in FIGS. 7A-7C, FIGS. 8A-8B, and FIGS. 17A-17J were generated using well-known protocols for measuring apoptosis, which are readily apparent to a skilled artisan. Without being bound by any theory, an overview of the procedure can be found in, for example, Rieger et al., Modified Annexin V/Propidium Iodide Apoptosis Assay For Accurate Assessment of Cell Death, J VI. Exp. 2011; (50): 2597.\nIC50s and EC50s: Certain cell viability studies described herein were assessed using the Tryptan blue dye exclusion method or the MTS assay. Certain apoptosis studies and related studies described herein were determined via FACS by annexin V positivity."}, "[2]": {"system": "Ba/F3 cells transfected with FLT3 ITD-F691L", "test": "Cytotoxicity in isogenic transfected Ba/F3 cells (Table 4)", "format": "cell-based, Murin", "conditions": "Mus musculus, BaF3, read-out: IC50 in Transfected Ba/F3 cells, FLT3 ITD-F691L"}, "THP-1 (FLT3-WT, t(9:11))": {"system": "THP-1 (FLT3-WT, t(9:11))", "test": "Antiproliferative activity (Table 6)", "format": "cell-based", "conditions": "Homo sapiens, THP-1, 72 h"}, "MV411 cells": {"system": "MV411 cells", "test": "Cell-cycle analysis (EdU/PI flow cytometry)", "format": "cell-based, human", "conditions": "dose-dependent", "experimental": "Cell-cycle analysis: Cells were treated with vehicle, DMSO or Compound 7 and were stained with PI and EdU, and then analyzed by flow cytometry to determine the phases of cell cycle."}, "FLT3(D835H)": {"target": "T2, FLT3(D835H) (Homo sapiens, UniProt P36888, D835H)", "T2 construct": "made in house; host or cells: E. coli BL21-derived host (T7 phage) or HEK-293", "test": "Binding constant (Kd), kinase-tagged phage / affinity bead competition binding with qPCR readout"}, "FLT3(R834Q)": {"target": "T3, FLT3(R834Q) (Homo sapiens, UniProt P36888, R834Q)", "T3 construct": "made in house; host or cells: E. coli BL21-derived host (T7 phage) or HEK-293", "test": "Binding constant (Kd), competition binding with qPCR readout", "experimental": "(§6) Measurements of said kinase activity are referred to as binding constants or Kd values. The protocol for obtaining these values is hereby described. For most assays, kinase-tagged T7 phage strains were prepared in an E. coli host derived from the BL21 strain. E. coli were grown to log-phase and infected with T7 phage and incubated with shaking at 32° C. until lysis. The lysates were centrifuged and filtered to remove cell debris. The remaining kinases were produced in HEK-293 cells and subsequently tagged with DNA for qPCR detection. […] The liganded beads were blocked with excess biotin and washed with blocking buffer (SeaBlock (Pierce), 1% BSA, 0.05% Tween 20, 1 mM DTT) to remove unbound ligand and to reduce nonspecific binding. […] Test compounds were prepared as 111× stocks in 100% DMSO. Kds were determined using an 11-point 3-fold compound dilution series with three DMSO control points. […] The compounds were then diluted directly into the assays such that the final concentration of DMSO was 0.9%. All reactions performed in polypropylene 384-well plate. Each was a final volume of 0.02 ml. […] The kinase concentration in the eluates was measured by qPCR."}, "FLT3(ITD-F691L)": {"target": "T4, FLT3(ITD-F691L) (Homo sapiens, UniProt P36888, F691L, form not given)", "T4 construct": "kinase-tagged T7 phage strains were prepared in an E. coli host derived from the BL21 strain; fused on or other part: T7 phage fusion or DNA tag for qPCR detection", "test": "Binding constant (Kd), competition binding with qPCR readout", "experimental": "as §6"}, "FLT3(D835V)": {"target": "T5, FLT3(D835V) (Homo sapiens, UniProt P36888, D835V)", "T5 construct": "made in house; host or cells: E. coli BL21-derived host (T7 phage) or HEK-293", "test": "Binding constant (Kd), competition binding with qPCR readout", "experimental": "as §6"}, "FLT3(ITD-D835V)": {"target": "T6, FLT3(ITD-D835V) (Homo sapiens, UniProt P36888, D835V, form not given)", "T6 construct": "kinase-tagged T7 phage strains were prepared in an E. coli host derived from the BL21 strain; fused on or other part: T7 phage fusion or DNA tag for qPCR detection", "test": "Binding constant (Kd), competition binding with qPCR readout", "experimental": "as §6"}, "FLT3(ITD)": {"target": "FLT3(ITD) (Homo sapiens, UniProt P36888)", "test": "Inhibition of FLT3 mutants, kinase IC50", "format": "biochemical", "parameters": "IC50; other: FLT3(ITD)", "experimental": "as §3, §4, §5"}, "Ba/F3-FLT3 (FLT3-WT)": {"system": "Ba/F3-FLT3 (FLT3-WT)", "test": "Antiproliferative activity (Table 6)", "format": "cell-based, Murin", "conditions": "72 h"}, "[3]": {"system": "BCR signaling in Ramos cells", "test": "BCR signaling in IgM-stimulated Ramos cells", "format": "cell-based", "conditions": "1 or 6 hours, then 12 μg/mL IgM for 3 min", "experimental": "In this experiment, Ramos cells were treated with or without Compound 7 or Ibrutinin at the indicated concentration for 1 (6 replicates) or 6 (3 replicates) hours, then stimulated with 12 μg/mL IgM for 3 min."}}, "data": [{"smiles": "Cc1cnc(-c2ccc(-c3ccc(NC(=O)Nc4c(F)cc(F)cc4F)cc3F)c3c2C(=O)NC3)[nH]1", "note": "[Compound 7, 1-{3-fluoro-4-[7-(5-methyl-1H-imidazol-2-yl)-1-oxo-2,3-dihydro-1H-isoindol-4-yl]-phenyl}-3-(2,4,6-trifluorophenyl)urea]", "values": [{"measurement": "Polyploidy (>4n) followed by apoptosis", "setting": "Ramos", "value": "effectively induced polyploidy (>4n) followed by apoptosis"}, {"measurement": "IC50", "setting": "EGFR", "value": "> 1000", "unit": "nM"}, {"measurement": "Inhibition of EGFR (in words)", "setting": "EGFR", "value": "no inhibition"}, {"measurement": "BTK and Aurora kinase activity", "setting": "[1]", "value": "inhibits BTK and Aurora kinase activity"}, {"measurement": "Polyploidy (>4n) followed by apoptosis", "setting": "Mino cells", "value": "effectively induced polyploidy (>4n) followed by apoptosis"}, {"measurement": "IC50", "setting": "BTK WT", "value": 5, "unit": "nM"}, {"measurement": "IC50", "setting": "FLT3(D835Y)", "value": 166, "unit": "nM"}, {"measurement": "Time dependency of apoptosis", "setting": "MV4-11 cells; MV4-11 cells, 1, 3, 6, 24 hour", "value": "induces apoptosis in a time dependent manner"}, {"measurement": "Apoptosis induction", "setting": "MV4-11 cells; MV411 cells, 24 hours, various concentrations", "value": "induces apoptosis"}, {"measurement": "IC50", "setting": "[2]", "value": 10, "unit": "nM"}, {"measurement": "IC50", "setting": "THP-1 (FLT3-WT, t(9:11))", "value": 3.88, "unit": "nM"}, {"measurement": "G0/G1 cell-cycle arrest", "setting": "MV411 cells", "value": "induce G0/G1 cell-cycle arrest"}, {"measurement": "Kd", "setting": "FLT3(D835H)", "value": 2.2, "unit": "nM"}, {"measurement": "Kd", "setting": "FLT3(R834Q)", "value": 6.4, "unit": "nM"}, {"measurement": "Kd", "setting": "FLT3(ITD-F691L)", "value": 15, "unit": "nM"}, {"measurement": "Kd", "setting": "FLT3(D835V)", "value": 7.9, "unit": "nM"}, {"measurement": "Kd", "setting": "FLT3(ITD-D835V)", "value": 1700, "unit": "nM"}, {"measurement": "IC50", "setting": "FLT3(ITD)", "value": 0.817, "unit": "nM"}, {"measurement": "IC50", "setting": "Ba/F3-FLT3 (FLT3-WT)", "value": 9.49, "unit": "nM"}, {"measurement": "BCR signaling", "setting": "[3]", "value": "affects the BCR signaling"}]}]}
